Test results reported in patent US11873298B2, “Compounds and uses thereof” (JANSSEN PHARMACEUTICA NV, priority 2017, dated 2024).

Tests used:
Format in all cases: cell-based
Ole1 = biological target: T1, Ole1 (Saccharomyces cerevisiae, UniProt P21147); assay: Growth inhibition of yeast strain expressing Ole1 as sole desaturase; conditions: yeast strain expressing Ole1 as sole desaturase
T1 construct: expressed in transfected cells; host or cells: S. cerevisiae ole1Δ strain (W303 pdr1Δ pdr3Δ background), plasmid pRS316 with TDH3 promoter and CYC1 terminator
T1 sequence (P21147 1-510): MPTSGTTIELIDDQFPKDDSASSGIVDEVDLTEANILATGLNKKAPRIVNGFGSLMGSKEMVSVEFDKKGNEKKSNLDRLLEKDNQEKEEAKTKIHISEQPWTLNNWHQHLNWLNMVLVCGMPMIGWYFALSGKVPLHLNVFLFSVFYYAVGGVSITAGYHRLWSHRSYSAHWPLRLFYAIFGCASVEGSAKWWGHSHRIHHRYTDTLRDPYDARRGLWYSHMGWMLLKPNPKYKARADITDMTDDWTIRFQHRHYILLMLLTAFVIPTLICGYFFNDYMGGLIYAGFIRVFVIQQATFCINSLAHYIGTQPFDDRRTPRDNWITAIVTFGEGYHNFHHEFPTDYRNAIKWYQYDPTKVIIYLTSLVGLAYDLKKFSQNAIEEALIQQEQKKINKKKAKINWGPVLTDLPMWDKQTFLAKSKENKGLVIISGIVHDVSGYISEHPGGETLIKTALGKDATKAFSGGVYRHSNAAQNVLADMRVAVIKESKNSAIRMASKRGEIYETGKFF
Outline: (§1)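 OD600 growth read-out. ole1Δ yeast, pdr1Δ pdr3Δ, with Ole1/SCD1/SCD5 on a plasmid; SX-Ura media throughout; 2× cell density 0.02 in CSM-Galactose; DMSO compound dilutions; humidified 30° C.; Ole1 stopped at 24 h, SCD1/SCD5 at 40 h.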

SCD1 = biological target: T2, SCD1 (Homo sapiens, UniProt O00767); assay: Growth inhibition of humanized yeast strain expressing SCD1 as sole desaturase; conditions: humanized yeast strain expressing SCD1
T2 construct: host or cells: S. cerevisiae ole1Δ strain (W303 pdr1Δ pdr3Δ background), plasmid pRS316 with TDH3 promoter and CYC1 terminator
T2 sequence (O00767 1-359): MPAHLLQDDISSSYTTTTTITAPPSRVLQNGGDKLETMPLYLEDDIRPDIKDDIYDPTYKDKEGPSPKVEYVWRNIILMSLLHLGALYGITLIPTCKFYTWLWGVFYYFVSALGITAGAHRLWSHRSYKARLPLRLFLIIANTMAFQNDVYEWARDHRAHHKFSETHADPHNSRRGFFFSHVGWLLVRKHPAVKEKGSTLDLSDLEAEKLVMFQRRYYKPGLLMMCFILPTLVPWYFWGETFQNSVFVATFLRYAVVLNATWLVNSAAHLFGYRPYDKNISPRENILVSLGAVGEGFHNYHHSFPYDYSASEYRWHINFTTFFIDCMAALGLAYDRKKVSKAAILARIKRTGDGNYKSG
Outline: as §1

SCD5 = biological target: T3, SCD5 (Homo sapiens, UniProt Q86SK9); assay: Growth inhibition of humanized yeast strain expressing SCD5 as sole desaturase; conditions: humanized yeast strain expressing SCD5
T3 construct: host or cells: S. cerevisiae ole1Δ strain (W303 pdr1Δ pdr3Δ background), plasmid pRS316 with TDH3 promoter and CYC1 terminator
T3 sequence (Q86SK9 1-330): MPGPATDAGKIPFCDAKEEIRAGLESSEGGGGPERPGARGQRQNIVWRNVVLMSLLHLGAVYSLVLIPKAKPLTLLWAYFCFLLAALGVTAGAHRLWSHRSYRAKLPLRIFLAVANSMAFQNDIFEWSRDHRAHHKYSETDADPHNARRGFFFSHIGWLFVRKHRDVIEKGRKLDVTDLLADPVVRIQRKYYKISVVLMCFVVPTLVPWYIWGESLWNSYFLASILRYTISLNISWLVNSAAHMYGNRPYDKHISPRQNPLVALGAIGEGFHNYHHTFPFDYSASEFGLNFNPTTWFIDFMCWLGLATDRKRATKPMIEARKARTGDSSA
Outline: as §1

With COc1cc(OC)cc(-c2noc(C3CCN(C(=O)CNC(=O)c4ccccc4)CC3)n2)c1 [Compound 187] the IC50 (Ole1) was over 45 µM, the “OLE1 % Max Inhibition” value (Ole1) was 97.42% and the IC50 (SCD1) was over 45 µM. For the same molecule, the “SCD1 % Max Inhibition” value (SCD1) was 72.13%, the IC50 (SCD5) was over 45 µM and the “SCD5 % Max Inhibition” value (SCD5) was 2.91%.

For CCOC(=O)C(C)(C)n1cc2ccc(-c3noc(C4CCN(C(=O)CNC(=O)c5ccccc5)CC4)n3)cc2n1 [Compound 194], the IC50 (Ole1) was over 45 µM, the “OLE1 % Max Inhibition” value (Ole1) was 60.71% and the IC50 (SCD1) was over 45 µM. For the same molecule, the “SCD1 % Max Inhibition” value (SCD1) was 74.07%, the IC50 (SCD5) was over 45 µM and the “SCD5 % Max Inhibition” value (SCD5) was 63.24%.

In the case of O=C(C1CC(=O)N(c2cccc(Cl)c2)C1)N1CCC(c2nc(N3CCC4(CC3)COC4)no2)CC1 (stereo not drawn) [Compound 325], the IC50 (Ole1) is reported as over 45 µM, the “OLE1 % Max Inhibition” value (Ole1) is reported as 79.2% and the IC50 (SCD1) is reported as over 45 µM. The “SCD1 % Max Inhibition” value (SCD1) was 73.7%, the IC50 (SCD5) was over 45 µM and the “SCD5 % Max Inhibition” value (SCD5) was 67.2%.

CC(C)n1cc2ccc(-c3noc(C4CCN(C(=O)CNC(=O)c5ccccc5)CC4)n3)cc2n1 [Compound 181] was tested, and the IC50 (Ole1) was over 45 µM, the “OLE1 % Max Inhibition” value (Ole1) was 20.70% and the IC50 (SCD1) was over 45 µM. The “SCD1 % Max Inhibition” value (SCD1) was 88.32%, the IC50 (SCD5) was over 45 µM and the “SCD5 % Max Inhibition” value (SCD5) was 81.40%.

For Cc1nn(C)c2cc(-c3noc(C4CCN(C(=O)CNC(=O)c5ccc(C(F)(F)F)cc5)CC4)n3)ccc12 [Compound 317], the IC50 (Ole1) was over 45 µM, the “OLE1 % Max Inhibition” value (Ole1) was 8.3% and the “SCD1 % Max Inhibition” value (SCD1) was 30.0%. The IC50 (SCD5) was over 45 µM and the “SCD5 % Max Inhibition” value (SCD5) was 20.6%.

COc1cccc(-c2noc(C3CC(=O)N(c4ccc(C)c(C)c4)C3)n2)c1 (stereo not drawn) [Compound 489] was tested, and the IC50 (Ole1) was over 45 µM, the “OLE1 % Max Inhibition” value (Ole1) was 94.30% and the “SCD1 % Max Inhibition” value (SCD1) was 68.84%. For the same molecule, the IC50 (SCD5) was 41.1 µM and the “SCD5 % Max Inhibition” value (SCD5) was 61.11%.

For O=C(C1CC(=O)N(c2cccc(Cl)c2)C1)N1CCC(c2nc(-c3cnn(C4COC4)c3)no2)CC1 (stereo not drawn) [Compound 340], the IC50 (Ole1) was over 45 µM, the “OLE1 % Max Inhibition” value (Ole1) was 88.9% and the IC50 (SCD1) was over 45 µM. For the same molecule, the “SCD1 % Max Inhibition” value (SCD1) was 55.0%, the IC50 (SCD5) was over 45 µM and the “SCD5 % Max Inhibition” value (SCD5) was 65.9%.

For Cc1nn(C)c2cc(-c3noc(C4CCN(C(=O)CNC(=O)c5cc(Cl)ccc5C(F)(F)F)CC4)n3)ccc12 [Compound 328], the IC50 (Ole1) was over 45 µM, the “OLE1 % Max Inhibition” value (Ole1) was 21.9% and the “SCD1 % Max Inhibition” value (SCD1) was 86.6%. For the same molecule, the IC50 (SCD5) was over 45 µM and the “SCD5 % Max Inhibition” value (SCD5) was 80.5%.

With CCOc1ccc(-c2noc(C3CCN(C(=O)CN4Cc5cccc(F)c5C4=O)CC3)n2)cc1OC [Compound 178] the IC50 (Ole1) was over 45 µM, the “OLE1 % Max Inhibition” value (Ole1) was 7.39% and the IC50 (SCD1) was over 45 µM. For the same molecule, the “SCD1 % Max Inhibition” value (SCD1) was 114.07%, the IC50 (SCD5) was over 45 µM and the “SCD5 % Max Inhibition” value (SCD5) was 85.67%.

In the case of CCOc1cc(-c2noc(C3CCN(C(=O)CNC(=O)c4ccccc4)CC3)n2)ccc1OC [Compound 199], the IC50 (Ole1) is reported as over 45 µM, the “OLE1 % Max Inhibition” value (Ole1) is reported as 24.34% and the IC50 (SCD1) is reported as over 45 µM. The “SCD1 % Max Inhibition” value (SCD1) was 27.85%, the IC50 (SCD5) was over 45 µM and the “SCD5 % Max Inhibition” value (SCD5) was 3.87%.

In the case of CC(C)n1cc2ccc(-c3noc(C4CCN(C(=O)C5CC(=O)N(c6ccccc6)C5)CC4)n3)cc2n1 (stereo not drawn) [Compound 180], the IC50 (Ole1) is reported as over 45 µM, the “OLE1 % Max Inhibition” value (Ole1) is reported as 107.78% and the IC50 (SCD1) is reported as over 45 µM. For the same molecule, the “SCD1 % Max Inhibition” value (SCD1) was 102.85%, the IC50 (SCD5) was over 45 µM and the “SCD5 % Max Inhibition” value (SCD5) was 82.28%.

In the case of Cn1ncc2ccc(-c3noc(C4CCN(C(=O)c5ccnc(-c6ccccc6)c5)CC4)n3)cc21 [Compound 208], the IC50 (Ole1) is reported as over 45 µM, the “OLE1 % Max Inhibition” value (Ole1) is reported as 96.63% and the IC50 (SCD1) is reported as over 45 µM. The “SCD1 % Max Inhibition” value (SCD1) was 14.04%, the IC50 (SCD5) was over 45 µM and the “SCD5 % Max Inhibition” value (SCD5) was 5.68%.

O=C(C1CC(=O)N(c2cccc(Cl)c2)C1)N1CCC(c2nc(N3CCOCC3)no2)CC1 (stereo not drawn) [Compound 323] was tested, and the IC50 (Ole1) was over 45 µM, the “OLE1 % Max Inhibition” value (Ole1) was 89.1% and the IC50 (SCD1) was over 45 µM. The “SCD1 % Max Inhibition” value (SCD1) was 76.1%, the IC50 (SCD5) was over 45 µM and the “SCD5 % Max Inhibition” value (SCD5) was 73.5%.
